Source: patent US20240124510A1, “Cyclic Glycoaminoacid Derivatives” (TFCHEM, priority 2021, published 2024)
Where “and” joins values, the source holds several entries; their conditions need not be identical. Equal values may be shown once.

Tests used:
[1] = tested on: Normal human epidermal keratinocytes (NHEK); experiment: Lipid peroxidation in NHEK under UV stimulation (C11-fluor probe, flow cytometry); type: cell-based; details: 100 μM, irradiated UVB 300 mJ/cm^2 (+UVA 2.1 J/cm^2)
Experimental: Normal human epidermal keratinocytes were seeded in 48-well plates and cultured in culture medium for 24 hours and then in assay medium for a further 24 hours. The medium was then removed and replaced by assay medium containing or not (irradiated control) the test compounds or the reference (BHA—butylated hydroxyanisole, lipid peroxidation inhibitor—at 100 μM) and the cells were pre-incubated for 24 hours. After pre-incubation, the specific fluorescent probe for the measurement of lipid peroxides (C11-fluor) was added and the cells were incubated for 45 minutes. Then, the medium was removed and replaced by assay medium containing or not (irradiated control and test compound conditions) the reference and the cells were irradiated with UVB (+UVA)−300 mJ/cm^2 (+2.1 J/cm^2). The lamp used was a SOL500 Sun Simulator equipped with an H2 filter (Dr. Hbnle. AG). After irradiation, the medium was removed and replaced by assay medium containing or not (irradiated control) the test compounds or the reference and the cells were incubated for 30 minutes before flow cytometry analysis. A non-irradiated control condition was performed in parallel. All experimental conditions were performed in triplicate.
At the end of the incubation, in each well, the cells were trypsinized and transferred into specific tubes for the analysis of C11-fluor fluorescence intensity using a BD FACSVerse™ flow cytometer (acquisition of 2000 to 5000 events per tube). The C11-fluor fluorescent probe is a lipid analogue which integrates cell membranes. As the fluorescence intensity of this probe is decreased with oxidation, it is inversely proportional to the lipid peroxidation. In order to facilitate the result interpretation, the lipid peroxidation was expressed using the value “1/fluorescence intensity” in order to have a direct proportionality between the induction of lipid peroxidation and the values of “% of irradiated control”.
Results presented in Table 24 are expressed as fluorescence intensity and as […] of protection compared to the control.

MCP1 = experiment: Extracellular secretion of MCP1 by preadipocytes in inflammatory condition (ELISA); type: cell-based, human
Experimental: (§1) Preadipocytes have been isolated from human female hypodermis (body mass index <30 kg/m2 and <45 years old). Preadipocytes have been cultured for 24 h in 100 μl of DMEM-10% Fetal Bovine Serum (FBS) in 96-well plates. Then cells were treated to induce their differentiation in a classical or an inflammatory environment for 13 days.
(§2) To induce the preadipocytes differentiation cells were incubated in a proadipogenic cocktail (PAC) including insulin, glucocorticoid, 3-isobutyl-1-methylxanthine (IBMX), and thiazolinedione in DMEM.
(§3) To induce a fibro-inflammatory environment, cells were treated with an activated human macrophage-conditioned medium (AcMC) prepared in RPMI medium. A treatment with Dexamethasone (DXM) at 100 nM was used as anti-inflammatory response control. At D0: preadipocytes have been treated in the following conditions: • “Undifferentiation”: DMEM+¼ RPMI medium • “Differentiation”: PAC+¼ RPMI medium • “AcMC” i.e. inflammatory condition: PAC+¼ AcMC • “AcMC+DXM”: PAC+[…] AcMC+anti-inflammatory DXM at 100 nM • “AcMc+compounds”: PAC+14 AcMC+compounds to be tested
(§4) All conditions have been performed in triplicate. The medium has been changed every 2 days for 13 days.
(§5) At D14: during the last 24 h of culture, the medium has been replaced by DMEM/F12 medium in all conditions, to collect cells' secretions.
(§6) After 13 days, the 24 h culture media of the different conditions have been collected at the end of the treatment period. The concentrations of IL-6, procollagen I and MCP1 have been evaluated by ELISA assays using specific kits (for IL-6: DY206, DuoSet ELISA, R&D Systems; for Procollagen I: DY6220-05, DuoSet ELISA, R&D Systems; for MCP1: DY279-05 DuoSet ELISA, R&D Systems) according to the manufacture's recommendations. Values have been normalized to the cell number determined by DAPI staining.
Quantity of MCP1 secreted in medium was measured and was normalized by cell number in each culture condition. Data are represented in percentage of proinflammatory control condition (AcMC condition).

human preadipocytes = experiment: Total lipid accumulation (AdipoRed staining) in preadipocytes/adipocytes in inflammatory condition; type: cell-based; details: AcMC + 100 nM, end of the culture
Experimental: as §1, §2, §3, §4
After 14 days of culture, preadipocytes have been fixed with 4% paraformaldehyde and then stained by AdipoRed™ at room temperature to reveal the intracellular lipid droplets. Quantification of lipid accumulation has been performed by fluorescence intensity measurements using the spectrophotometer Spark (TECAN).
Lipid accumulation and Lipid index were evaluated for each condition. Data are represented in percentage of proinflammatory control condition (AcMC condition).

IL-6 [2] = experiment: IL-6 secretion in coculture of human aged fibroblasts and mature adipocytes (AM3D-FB2D, ELISA); type: cell-based; details: for secretion of IL-6 in percentage of the coculture control condition, Mean (%) / secretion of IL-6 in percentage of the coculture control condition, Values (%): 100 nM; for secretion of IL-6 in percentage of the coculture control condition, Values (%): individual replicates; for IL-6 secretion in percentage of the coculture control condition: anti-inflammatory reference item
From the text: In order to evaluate its effect on fibroblast matrix and its anti-inflammatory properties, the effect of compound 6 has been tested on an adipocytes-aged fibroblasts coculture model, mimicking the interactions between dermis and hypodermis in the skin and allowed to explore in parallel the biological effects of the products on two cellular targets.
• Experimental model: co-culture of human mature adipocytes cultured in 3D and human dermal fibroblasts cultured in 2D (AM3D-FB2D co-culture). This experimental model of AM3D-FB2D co-culture mimicked the interactions between dermis and hypodermis in the skin and allowed to explore in parallel the biological effects of the products on two cellular targets. • Donor characteristics: This study was performed on mature adipocytes and fibroblasts from two different donors (one donor for mature adipocytes and another donor for dermal fibroblasts). • Fibroblasts donor=person, BMI=28 kg/m^2 • Adipocytes donor=person, BMI=21.4 kg/m^2 • Treatment procedure: compound 6 was added to the co-culture medium daily for up to 6 days
Dermal fibroblasts were seeded in DMEM 10% FBS at 10000 cells/well. The day after, the adipocytes capsules of 50 μl were added in suspension above the fibroblasts and the medium was changed and replaced by a specific culture medium for the co-culture AM3D-FB2D. The formation of adipocytes capsules followed an internal standardized protocol. Briefly, the fully mature adipocytes were isolated from the hypodermis after digestion by collagenase. The isolated adipocytes were then washed with a wash buffer and encapsulated in a peptidic hydrogel to form 3D adipocytes capsules of 50 μl in size. Cells were incubated at 37° C. and 5% CO2 overnight for stabilization. Treatments were initiated at DO with a medium change at DO, D2, D3 and D5. The entire culture media of 24 h incubation was collected at D3 and D6, before being centrifugated and stored at −80° C. Each culture condition was done in triplicate.
The biochemical analyses on culture media were performed via ELISA using specific kits according to the manufacturer's recommendations: IL-6 (Duoset DY206, R&D Systems), and Hyaluronic Acid (HA) (Duoset, DY3614-05, R&D Systems and Procollagen I (Duoset, DY6220-05, R&D Systems) The results of HA and Procollagen I were normalized by fibroblasts cell number regarding the fact that these molecules were secreted mainly by fibroblasts. All the biochemical results were represented in percentage of the control condition.
To evaluate the effect of the compound 6 on inflammation, the extracellular concentrations of IL-6, that is secreted by the fibroblasts but mainly by the adipocytes, were measured at D3 and D6.

IL-6 [3] = experiment: Extracellular secretion of IL-6 by preadipocytes in inflammatory condition (ELISA); type: cell-based, human
Experimental: as §1, §2, §3, §4, §5, §6
Quantity of IL-6 secreted in medium was measured and was normalized by cell number in each culture condition. Data are represented in percentage of proinflammatory control condition (AcMC condition).

Collagen I fibers = experiment: Quantity of Collagen 1 fibers produced by preadipocytes in inflammatory condition (immunofluorescence); type: cell-based, human; details: AcMC + 100 nM, normalized by cells number (DAPI)
Experimental: as §1, §2, §3
One month after fixation of preadipocytes cultivated in pro-inflammatory environment, cells were incubated with 3% Bovine Serum Albumin (BSA) for 30 min in order to block the non-specific sites, then with primary antibody anti-collagen 1 (Novusbio, NB600-408) over-night. After washes with PBS, cells were incubated for 30 min with 3% BSA and then with the secondary antibodies (Goat anti-rabbit alexa-fluor 488, ThermoFisher, A11008) and DAPI (for nuclei staining) for 1 h. After several washes, the acquisition and the quantification were performed with a fluorescent video-microscope. Briefly, the quantification was based on the detection and quantification of cell nuclei stained with DAPI, and the detection of collagen 1 staining. Collagen 1 fibers were detected and measured for their length, thickness and intensity. A Collagen 1 fibers quantity was calculated (Quantity=length*thickness*fluorescence intensity) and normalized by cells number (DAPI staining).
Collagen I fibers (fibrillar collagen I) quantity was quantified and the data were normalized by cell number (DAPI staining, quantification of nuclei number). Data are represented in percentage of proinflammatory control conditions (AcMC condition).

[4] = AcMC + 100 nM, normalized by cells number (DAPI)
[5] = AcMC + 100 nM, normalized by cells number (DAPI), individual values

COc1ccc(O)c(C(C)(C)C)c1 [BHA, Butylated hydroxyanisole, reference compound]
% Irradiated control (lipid peroxidation) [1]: 31%
% Protection (lipid peroxidation) [1]: 75%
C11-fluor 1/GMFI Mean (AU) [1]: 2.7E−04 AU
C11-fluor 1/GMFI (AU) ([1]; individual replicates): 1.90E−04 AU and 2.74E−04 AU and 3.37E−04 AU
C11-fluor GMFI (AU) ([1]; individual replicates): 5266 AU and 3653 AU and 2965 AU

C[C@@H]1C[C@H]2[C@@H]3CCC4=CC(=O)C=C[C@]4(C)[C@@]3(F)[C@@H](O)C[C@]2(C)[C@@]1(O)C(=O)CO [Dexamethasone, reference compound]
MCP1 secretion, Mean (%) (MCP1; [4]): 95 % of AcMC condition
MCP1 secretion, Values (%) (MCP1; [5]): 82.4 % of AcMC condition and 106.8 % of AcMC condition and 97.2 % of AcMC condition
Effect on the MCP1 secretion (MCP1; AcMC, DXM at 100 nM): no effect
Total Lipid Accumulation (Adipored staining), Mean (human preadipocytes): 220.6 % of AcMC condition
Total Lipid Accumulation (Adipored staining), Values (human preadipocytes; individual values): 213.8 % of AcMC condition and 229.4 % of AcMC condition and 218.6 % of AcMC condition
secretion of IL-6 in percentage of the coculture control condition, Mean (%) (IL-6 [2]; D3): 34%
secretion of IL-6 in percentage of the coculture control condition, Values (%) (IL-6 [2]; D3): 22% and 48% and 31%
secretion of IL-6 in percentage of the coculture control condition, Mean (%) (IL-6 [2]; D6): 41%
secretion of IL-6 in percentage of the coculture control condition, Values (%) (IL-6 [2]; D6): 39% and 24% and 61%
IL-6 secretion in percentage of the coculture control condition (IL-6 [2]; 3 days of treatment): 34%
IL-6 secretion in percentage of the coculture control condition (IL-6 [2]; 6 days of treatment): 41%
IL-6 secretion, Mean (IL-6 [3]; [4]): 22.8 % of AcMC condition
IL-6 secretion, Values (IL-6 [3]; [5]): 21.9 % of AcMC condition and 21.8 % of AcMC condition and 24.5 % of AcMC condition
IL-6 secreted, normalized by cell number, in % of AcMC condition (IL-6 [3]; preadipocytes/adipocytes, AcMC, 100 nM): 22.8%
Collagen I fibers quantity, Mean (%) (Collagen I fibers): 391 % of AcMC condition
Collagen I fibers quantity, Values (%) (Collagen I fibers; individual values): 397.3 % of AcMC condition and 390.0 % of AcMC condition and 384.5 % of AcMC condition
